Measured values as given in ChEMBL document CHEMBL1140609, “Carbonic anhydrase inhibitors. Inhibition of transmembrane isozymes XII (cancer-associated) and XIV with anions” (Bioorg Med Chem Lett, 2007).

What was measured:
Carbonic anhydrase 14 = Carbonic anhydrase 14 (Homo sapiens, UniProt Q9ULX7); assay: Inhibition of human recombinant full length CA14
Carbonic anhydrase 12 = Carbonic anhydrase 12 (Homo sapiens, UniProt O43570); assay: Inhibition of human recombinant catalytic domain CA12
Carbonic anhydrase 9 = Carbonic anhydrase 9 (Homo sapiens, UniProt Q16790); assay: Inhibition of human recombinant catalytic domain CA9

Sequence of Carbonic anhydrase 14 (Q9ULX7 whole entry, the tested form may be a part): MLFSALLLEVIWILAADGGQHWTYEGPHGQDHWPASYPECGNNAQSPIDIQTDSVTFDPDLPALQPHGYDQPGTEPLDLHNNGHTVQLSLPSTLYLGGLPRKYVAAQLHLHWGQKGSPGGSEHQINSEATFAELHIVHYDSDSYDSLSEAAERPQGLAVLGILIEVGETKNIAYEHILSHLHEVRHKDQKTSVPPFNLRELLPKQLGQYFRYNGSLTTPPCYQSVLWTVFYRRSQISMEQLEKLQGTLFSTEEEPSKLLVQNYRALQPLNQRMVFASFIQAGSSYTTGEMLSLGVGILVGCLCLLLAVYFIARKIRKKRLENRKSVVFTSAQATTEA
Sequence of Carbonic anhydrase 12 (O43570 whole entry, the tested form may be a part): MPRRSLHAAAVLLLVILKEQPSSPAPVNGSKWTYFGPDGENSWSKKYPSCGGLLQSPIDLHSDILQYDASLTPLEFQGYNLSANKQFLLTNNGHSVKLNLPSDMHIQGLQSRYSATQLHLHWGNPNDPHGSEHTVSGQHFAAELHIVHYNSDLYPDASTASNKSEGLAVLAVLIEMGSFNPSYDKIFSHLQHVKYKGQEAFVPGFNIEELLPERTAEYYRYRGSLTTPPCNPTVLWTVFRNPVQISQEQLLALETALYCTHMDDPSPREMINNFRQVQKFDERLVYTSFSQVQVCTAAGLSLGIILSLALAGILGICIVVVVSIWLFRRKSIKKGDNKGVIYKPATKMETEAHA

Structure (SMILES)	Ki (Carbonic anhydrase 14) [µM]	Ki (Carbonic anhydrase 12) [µM]	Ki (Carbonic anhydrase 9) [µM]
OB(O)c1ccccc1 [PHENYLBORONIC ACID]	92	800	–
NS(=O)(=O)O [SULFAMATE]	1090	700	92
NS(N)(=O)=O [SULFAMIDE]	750	830	–
